Patent US20230081034A1 (SHANGHAI BENEMAE PHARMACEUTICAL CORPORATION, priority 2020, published 2023)
“Also recorded” adds a separate entry of the source.

Tests used:
[1] = test system: patients with type 2 diabetes; assay: Randomized, double-blind, placebo-controlled clinical trial: subcutaneous beinaglutide before meals in combination with oral metformin, 12-week treatment; format: in vivo, human
Procedure: The inclusion criteria (if any) are as follows: Type 2 diabetic patients that met the World Health Organization's diagnostic criteria for type 2 diabetes (WHO, 1999) who received oral metformin treatment at dosages 1,000 mg/d that had stabilized for at least 3 months without treatment-related adverse events (e.g., vomiting) and voluntarily signed informed consent and with the following criteria:
In a randomized, double-blind, placebo-controlled clinical trial, 42 patients with type 2 diabetes treated with metformin monotherapy were randomly divided into a treatment group and a control group, with 21 cases in each group. All patients received metformin (Glucophage, purchased from Bristol-Myers Squibb) with original dosages. 200 μg of beinaglutide (from Benemae, treatment group) or a placebo (Benemae, control group) were administered to patients by one-time subcutaneous injection before each of three meals (600 μg/d) and followed up after a 12-week treatment.
Glycated hemoglobin (HbA1c), fasting blood glucose, 2 h postprandial blood glucose, BMI, and other effectiveness indicators were measured.

[2] = test system: obese and overweight patients with type 2 diabetes; assay: Beinaglutide dosing regimen (continuous subcutaneous pump plus pre-meal doses), alone or with metformin / insulin glargine, one month; format: in vivo, human
Procedure: The beinaglutide dosing regimen included 1) a continuous subcutaneous administration of beinaglutide at 12.5 μg/h (300 μg/d) via a subcutaneous pump, 2) a one-time subcutaneous administration of beinaglutide at a dose of 100 μg 5 min before each of the three meals a day, and 3) optional administration of insulin glargine and/or metformin.
The patients treated were overweight/obesity in short disease course of type 2 diabetes. Two patients were female, and four patients were male. The patients were 30 to 55 years old with a course of disease between 0 and 5 years with glycated hemoglobin between 9% and 12%, and BMI between 26 and 30 kg/m^2.
Three patients were treated with beinaglutide monotherapy. Three patients were treated with a combinational therapy of beinaglutide and one or two third active ingredients (metformin, or metformin and glargine). Glycated hemoglobin (HbA1c) and weight were measured.
The patients were treated with the beinaglutide dosing regimen described herein, either alone or in combination with one or more third active ingredients. Some patients were treated with insulin (daily dosage of 0.5 u/kg) pump treatment alone or in combination with metformin (0.5 g tid) for a week right before starting the beinaglutide treatment.

[3] = treatment group, after 12 weeks beinaglutide 600 μg/d s.c. + metformin
[4] = Patient 2: insulin (0.5 u/kg) 1 week, then beinaglutide regimen + metformin (0.5 g tid) 1 month

For “His-Ala-Glu-Gly-Thr-Phe-Thr-Ser-Asp-Val-Ser-Ser-Tyr-Leu-Glu-Gly-Gln-Ala-Ala-Lys-Glu-Phe-Ile-Ala-Trp-Leu-Val-Lys-Gly-Arg [beinaglutide]”, which “BMI, treatment group versus control group” value ([1]; 12 weeks, P>0.05) is on record?
Its value is “no statistic differences between the two groups”.

And the “Postprandial blood glucose decreased by” value ([1]; 2 h postprandial, treatment group, beinaglutide 600 μg/d s.c. + metformin, 12 weeks, P<0.01)?
The value was 4.18 mmol/L.

What about the “HbA1c decreased by” value ([1]; treatment group (21 cases), metformin at original dosage + beinaglutide 200 μg s.c. before each of three meals (600 μg/d), 12 weeks, P<0.01) of the same substance?
The value was 1.17%.

And the “HbA1c and fasting blood glucose post-treatment versus control group” value ([1]; treatment group vs placebo + metformin, 12 weeks, P<0.05)?
Its value is “even more significant decrease comparing with control group”.

What about the “HbA1c and fasting blood glucose post-treatment versus pre-treatment” value ([1]; treatment group, 12 weeks beinaglutide 600 μg/d + metformin) of the same substance?
The value was “significant decrease comparing with the pre-treatment indicators”.

And the “BMI change after treatment” value ([1]; treatment group, 12 weeks, P<0.05 (control group also decreased))?
The value was “significant decrease in BMI”.

What about the HbA1c post-treatment ([1]; treatment group, after 12 weeks beinaglutide 200 μg s.c. before each of three meals + metformin) of the same substance?
The HbA1c post-treatment was 6.8%.

And the “Fasting blood glucose post-treatment” value [1, 3]?
Its value is 7.45 mmol/L.

What about the “Postprandial blood glucose post-treatment” value [1, 3] of the same substance?
The value was 11.02 mmol/L.

What about the “Fasting blood glucose pre-treatment” value ([1]; treatment group, baseline) of the same substance?
Its value is 9.43 mmol/L.

And the “Postprandial blood glucose pre-treatment” value ([1]; treatment group, baseline)?
The value was 15.2 mmol/L.

And the HbA1c pre-treatment ([1]; treatment group, baseline before beinaglutide 600 μg/d + metformin)?
Its HbA1c pre-treatment is 7.97%.

What about the “Fasting blood glucose decreased by” value ([1]; treatment group, beinaglutide 600 μg/d s.c. + metformin, 12 weeks) of the same substance?
The value was 1.98 mmol/L.

What about the Body weight pre-treatment ([2]; Patient 1, baseline) of the same substance?
Its Body weight pre-treatment is 61 kg.

What about the HbA1c pre-treatment ([2]; Patient 1, baseline) of the same substance?
The HbA1c pre-treatment was 9.4%.

And the Body weight post-treatment ([2]; Patient 1: insulin (0.5 u/kg) + metformin (0.5 g tid) 1 week, then beinaglutide monotherapy (12.5 μg/h continuous s.c. + 100 μg before each of three meals) 1 month)?
The Body weight post-treatment was 57.5 kg.

And the Body weight pre-treatment ([2]; Patient 2, baseline)?
Its Body weight pre-treatment is 99 kg.

And the HbA1c pre-treatment ([2]; Patient 2, baseline)?
Its HbA1c pre-treatment is 8.8%.

And the Body weight post-treatment [2, 4]?
Its Body weight post-treatment is 93 kg.

And the HbA1c post-treatment [2, 4]?
The HbA1c post-treatment was 6.3%.

What about the Body weight pre-treatment ([2]; Patient 3, baseline) of the same substance?
Its Body weight pre-treatment is 88 kg.

What about the HbA1c pre-treatment ([2]; Patient 3, baseline) of the same substance?
Its HbA1c pre-treatment is 12.3%.

And the Body weight post-treatment ([2]; Patient 3: insulin (0.5 u/kg) 1 week, then beinaglutide regimen + metformin (0.5 g tid) 1 month)?
Its Body weight post-treatment is 83 kg.

What about the Body weight pre-treatment ([2]; Patient 4, baseline) of the same substance?
Its Body weight pre-treatment is 80 kg.

And the HbA1c pre-treatment ([2]; Patient 4, baseline)?
Its HbA1c pre-treatment is 9.3%.

What about the Body weight post-treatment ([2]; Patient 4: insulin (0.5 u/kg) 1 week, then beinaglutide regimen + metformin (0.5 g tid) + insulin glargine (16 u s.c. before bed) 1 month) of the same substance?
The Body weight post-treatment was 73 kg.

What about the Body weight pre-treatment ([2]; Patient 5, baseline) of the same substance?
Its Body weight pre-treatment is 80 kg.

What about the HbA1c pre-treatment ([2]; Patient 5, baseline) of the same substance?
Its HbA1c pre-treatment is 7.3%.

What about the Body weight post-treatment ([2]; Patient 5: beinaglutide monotherapy (12.5 μg/h continuous s.c. + 100 μg before each of three meals) 1 month) of the same substance?
Its Body weight post-treatment is 77 kg.

What about the Body weight pre-treatment ([2]; Patient 6, baseline) of the same substance?
Its Body weight pre-treatment is 85 kg.

What about the HbA1c pre-treatment ([2]; Patient 6, baseline) of the same substance?
Its HbA1c pre-treatment is 9.7%.

And the Body weight post-treatment ([2]; Patient 6: insulin (0.5 u/kg) 1 week, then beinaglutide monotherapy (0.6 mg/d) 1 month)?
Its Body weight post-treatment is 78 kg.

What about the “Overall outcome on body weight and HbA1c” value ([2]; six patients, continuous 300 μg/d + 100 μg tid before meal, alone or with metformin or metformin and insulin glargine, one month) of the same substance?
The value was “significant weight loss and/or HbA1c decrease; also recorded: achieved decrease in HbA1c and/or body weight”.
